Laboratory results: PubChem BioAssay AID330 (DTP/NCI, 2004)
Where “and” joins values, the source holds several entries; their conditions need not be identical. Identical values can stand only once. Toxic doses and inconclusive results are not listed. The calls were made as follows: active = survival T/C of 150% or more; inactive = T/C below 125% in these data.

Test system: P388 leukemia ip, CD2F1 mice, survival T/C
Experiment: NCI In Vivo Anticancer Drug Screen. Data for tumor model P388 Leukemia (intraperitoneal) in CD2F1 (CDF1) mice
Conditions: endpoint: median survival time, higher = longer survival
How it was run: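 Mice carrying the transplanted tumor received test compound or vehicle. Survival was recorded in each group, and the value is the treated-group measurement divided by that of the vehicle-treated control group.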

[1] = dose: 50.0 mg/kg/injection, schedule: Q01DX009 (ip), vehicle: saline with Tween-80
[2] = dose: 100.0 mg/kg/injection, schedule: Q01DX009 (ip), vehicle: saline with Tween-80
[3] = dose: 200.0 mg/kg/injection, schedule: Q01DX009 (ip), vehicle: saline with Tween-80
[4] = dose: 50.0 mg/kg/injection, schedule: Q01DX005 (ip), vehicle: saline with Tween-80
[5] = dose: 100.0 mg/kg/injection, schedule: Q01DX005 (ip), vehicle: saline with Tween-80
[6] = dose: 200.0 mg/kg/injection, schedule: Q01DX005 (ip), vehicle: saline with Tween-80
[7] = dose: 50.0 mg/kg/injection, schedule: Q01DX009 (ip), vehicle: saline
[8] = dose: 100.0 mg/kg/injection, schedule: Q01DX009 (ip), vehicle: saline
[9] = dose: 60.0 mg/kg/injection, schedule: Q01DX005 (ip), vehicle: saline with Tween-80
[10] = dose: 50.0 mg/kg/injection, schedule: Q01DX005 (ip), vehicle: Klucel (hydroxypropylcellulose) (HPC)
[11] = dose: 100.0 mg/kg/injection, schedule: Q01DX005 (ip), vehicle: Klucel (hydroxypropylcellulose) (HPC)
[12] = dose: 6.25 mg/kg/injection, schedule: Q04DX003 (ip), vehicle: Klucel (hydroxypropylcellulose) (HPC)
[13] = dose: 12.5 mg/kg/injection, schedule: Q04DX003 (ip), vehicle: Klucel (hydroxypropylcellulose) (HPC)

Measured: T/C

N/N=C(/N)[Se]
inactive: dose: 6.25 mg/kg/injection, schedule: Q01DX009 (ip), vehicle: saline 101 % of control | dose: 12.5 mg/kg/injection, schedule: Q01DX009 (ip), vehicle: saline 90 % of control

O=C(Nc1ccccc1)Oc1cccc(/C=N/S(=O)(=O)c2cccc([N+](=O)[O-])c2)c1
inactive: [1] 93 % of control | [2] 97 % of control | [3] 98 % of control

Nc1ccc([N+](=O)[O-])cc1C(=O)NCCc1ccncc1
inactive: [4] 95 % of control | [5] 97 % of control | [6] 99 % of control

CCCCCCCCCCCC1(O)OC(=O)C(C)=C1C (centres undefined)
inactive: dose: 12.5 mg/kg/injection, schedule: Q04DX003 (ip), vehicle: saline with Tween-80 101 % of control | dose: 25.0 mg/kg/injection, schedule: Q04DX003 (ip), vehicle: saline with Tween-80 108 % of control | dose: 50.0 mg/kg/injection, schedule: Q04DX003 (ip), vehicle: saline with Tween-80 103 % of control

Cc1cc[n+]([O-])cc1
inactive: [7] 105 % of control | [8] 106 % of control | dose: 200.0 mg/kg/injection, schedule: Q01DX009 (ip), vehicle: saline 97 % of control

CC(=O)OC1CN(C)CC=C1c1ccccc1 (centres undefined)
inactive: dose: 15.0 mg/kg/injection, schedule: Q01DX005 (ip), vehicle: saline with Tween-80 91 % of control | dose: 30.0 mg/kg/injection, schedule: Q01DX005 (ip), vehicle: saline with Tween-80 97 % of control | [9] 100 % of control and 97 % of control

[O-]c1n[n+](-c2ccccc2)ns1
inactive: dose: 3.13 mg/kg/injection, schedule: Q01DX009 (ip), vehicle: distilled water + Tween-80 99 % of control and 106 % of control | dose: 6.25 mg/kg/injection, schedule: Q01DX009 (ip), vehicle: distilled water + Tween-80 99 % of control and 101 % of control and 114 % of control | dose: 12.5 mg/kg/injection, schedule: Q01DX009 (ip), vehicle: distilled water + Tween-80 100 % of control and 105 % of control and 124 % of control | dose: 25.0 mg/kg/injection, schedule: Q01DX009 (ip), vehicle: distilled water + Tween-80 99 % of control and 115 % of control and 92 % of control

CC1(C)OC(=O)C(=CN(C2CCCCC2)C2CCCCC2)C(=O)O1
inactive: dose: 60.0 mg/kg/injection, schedule: Q01DX005 (ip), vehicle: Klucel (hydroxypropylcellulose) (HPC) 96 % of control | dose: 120.0 mg/kg/injection, schedule: Q01DX005 (ip), vehicle: Klucel (hydroxypropylcellulose) (HPC) 86 % of control

Cc1ccccc1CN1CC2=C(CCN(Cc3ccccc3)C2=O)N2CCN=C12
inactive: [4] 96 % of control | [5] 96 % of control | [6] 100 % of control

O=C(CCCl)Nc1cc2ccccc2oc1=O
inactive: [9] 91 % of control | dose: 120.0 mg/kg/injection, schedule: Q01DX005 (ip), vehicle: saline with Tween-80 92 % of control | dose: 240.0 mg/kg/injection, schedule: Q01DX005 (ip), vehicle: saline with Tween-80 89 % of control

Oc1ccccc1-c1cc(-c2ccccc2)nc(NCCCCNc2nc(-c3ccccc3)cc(-c3ccccc3O)n2)n1
inactive: dose: 12.5 mg/kg/injection, schedule: Q01DX005 (ip), vehicle: Klucel (hydroxypropylcellulose) (HPC) 97 % of control | dose: 25.0 mg/kg/injection, schedule: Q01DX005 (ip), vehicle: Klucel (hydroxypropylcellulose) (HPC) 97 % of control | [10] 94 % of control | [11] 88 % of control

Nc1ccc(-c2nc(N)c3[nH]cnc3n2)cc1
inactive: dose: 12.5 mg/kg/injection, schedule: Q01DX005 (ip), vehicle: suspension in saline 97 % of control | dose: 25.0 mg/kg/injection, schedule: Q01DX005 (ip), vehicle: suspension in saline 102 % of control | dose: 50.0 mg/kg/injection, schedule: Q01DX005 (ip), vehicle: suspension in saline 100 % of control | dose: 100.0 mg/kg/injection, schedule: Q01DX005 (ip), vehicle: suspension in saline 99 % of control

COC(=O)c1[c]([Sn]([CH3])([CH3])[CH3])n[n]([Sn]([CH3])([CH3])[CH3])c1C(=O)OC
inactive: dose: 6.25 mg/kg/injection, schedule: Q04DX003 (ip), vehicle: saline 98 % of control | dose: 12.5 mg/kg/injection, schedule: Q04DX003 (ip), vehicle: saline 98 % of control

N#CN=[N+]([O-])c1ccc(Cl)cc1
inactive: dose: 3.12 mg/kg/injection, schedule: Q01DX009 (ip), vehicle: Klucel (hydroxypropylcellulose) (HPC) 107 % of control | dose: 6.25 mg/kg/injection, schedule: Q01DX009 (ip), vehicle: Klucel (hydroxypropylcellulose) (HPC) 114 % of control | [12] 97 % of control | dose: 12.5 mg/kg/injection, schedule: Q01DX009 (ip), vehicle: Klucel (hydroxypropylcellulose) (HPC) 98 % of control | [13] 95 % of control | dose: 25.0 mg/kg/injection, schedule: Q04DX003 (ip), vehicle: Klucel (hydroxypropylcellulose) (HPC) 98 % of control

C=CC(=O)N(C)c1nc(N(C)C)nc(N(C)C)n1
inactive: [10] 102 % of control | [11] 108 % of control

C[C@]12CC[C@H]3C(=CCc4cc(O)ccc43)[C@@H]1C/C(=N\O)C2=O
inactive: [2] 115 % of control | dose: 100.0 mg/kg/injection, schedule: Q04DX003 (ip), vehicle: saline with Tween-80 100 % of control | [3] 120 % of control | dose: 200.0 mg/kg/injection, schedule: Q04DX003 (ip), vehicle: saline with Tween-80 104 % of control | dose: 400.0 mg/kg/injection, schedule: Q04DX003 (ip), vehicle: saline with Tween-80 95 % of control

OCC(O)C(O)C(O)c1nn(-c2ccccc2)c2nc3ccc(Cl)cc3nc12 (centres undefined)
inactive: [10] 90 % of control | [11] 90 % of control | dose: 200.0 mg/kg/injection, schedule: Q01DX005 (ip), vehicle: Klucel (hydroxypropylcellulose) (HPC) 89 % of control

CC(=O)Oc1cccc2c1C(=O)c1c(OC(C)=O)cccc1C2=O
inactive: dose: 1.56 mg/kg/injection, schedule: Q04DX003 (ip), vehicle: Klucel (hydroxypropylcellulose) (HPC) 99 % of control and 89 % of control | dose: 3.12 mg/kg/injection, schedule: Q04DX003 (ip), vehicle: Klucel (hydroxypropylcellulose) (HPC) 97 % of control | dose: 3.13 mg/kg/injection, schedule: Q04DX003 (ip), vehicle: Klucel (hydroxypropylcellulose) (HPC) 107 % of control | [12] 99 % of control and 97 % of control | [13] 99 % of control and 92 % of control | dose: 50.0 mg/kg/injection, schedule: Q01DX009 (ip), vehicle: Klucel (hydroxypropylcellulose) (HPC) 87 % of control | dose: 200.0 mg/kg/injection, schedule: Q01DX009 (ip), vehicle: Klucel (hydroxypropylcellulose) (HPC) 87 % of control | dose: 400.0 mg/kg/injection, schedule: Q01DX009 (ip), vehicle: Klucel (hydroxypropylcellulose) (HPC) 96 % of control

C=C(Br)C(=O)N1CCCC1C(=O)NC (centres undefined)
inactive: dose: 25.0 mg/kg/injection, schedule: Q01DX009 (ip), vehicle: saline 110 % of control | [7] 91 % of control | [8] 98 % of control

OCC(O)C(O)C(O)C(O)c1nnc2n[nH]c(=S)n2n1 (centres undefined)
inactive: dose: 25.0 mg/kg/injection, schedule: Q01DX001 (ip), vehicle: Klucel (hydroxypropylcellulose) (HPC) 100 % of control | dose: 50.0 mg/kg/injection, schedule: Q01DX001 (ip), vehicle: Klucel (hydroxypropylcellulose) (HPC) 98 % of control | dose: 100.0 mg/kg/injection, schedule: Q01DX001 (ip), vehicle: Klucel (hydroxypropylcellulose) (HPC) 100 % of control

CC1(C)OC(=O)C(Cc2c[nH]c3ccccc23)C(=O)O1
inactive: [1] 108 % of control | [2] 100 % of control | [3] 94 % of control

Cn1c(COc2ccc(/C=N\N/C(N)=N/N=C/c3ccc(OCc4c[n+]5ccccc5n4C)cc3)cc2)c[n+]2ccccc12
inactive: dose: 12.5 mg/kg/injection, schedule: Q01DX005 (ip), vehicle: saline with Tween-80 110 % of control | dose: 25.0 mg/kg/injection, schedule: Q01DX005 (ip), vehicle: saline with Tween-80 112 % of control

O=C(/C(=C\c1ccc(F)cc1)S(=O)(=O)c1ccc(Br)cc1)c1ccccc1
inactive: [4] 100 % of control | [5] 97 % of control | [6] 95 % of control

COc1ccc(CCNc2ccc(NCCc3ccc(OC)c(OC)c3)c3c2C(=O)c2ccccc2C3=O)cc1OC
inactive: dose: 25.0 mg/kg/injection, schedule: Q01DX009 (ip), vehicle: other 88 % of control | dose: 50.0 mg/kg/injection, schedule: Q01DX009 (ip), vehicle: other 88 % of control | dose: 200.0 mg/kg/injection, schedule: Q01DX009 (ip), vehicle: other 101 % of control | dose: 400.0 mg/kg/injection, schedule: Q01DX009 (ip), vehicle: other 91 % of control

CSc1nc(N)cc(C(F)(F)F)n1
inactive: [4] 88 % of control | [5] 99 % of control | [6] 97 % of control
